{"source": "patent US6605426B1", "about": "“Compounds, methods of screening, and in vitro and in vivo uses involving anti-apoptotic genes and anti-apoptotic gene products” (priority 1998, dated 2003)", "assay_type_in_all_cases": "cell-based, human", "key": {"MRC-5 cells": {"tested_on": "MRC-5 cells", "conditions": "for cell death of MRC-5 cells: within the first 24 h of exposure, anti-Fas and TNF-α only in the presence of CHX, phase microscope", "protocol": "(§1) Tumor necrosis factor receptor 1 (TNF-R1)-mediated apoptosis was induced by exposure of HeLa and MRC-5 cells to tumor necrosis factor-α (TNF-α) (Sigma, 10-60 ng/mL)+CHX (10-30 μg/mL). Fas-mediated apoptosis was induced by exposure of cells to an anti-Fas antibody (Coulter, 7C11 antibody at 0.2-4 μg/mL)+CHX (10-30 μg/mL). The degree of cell death was determined by the visual scoring of surviving cells, in representative fields, under a phase microscope.\nThe time-course of apoptosis was also analyzed by examining the expression of phosphatidylserine on the cell surface, as detected with FITC-labeled Annexin V, and by a dye-exclusion test using propidium iodide. These two tests were performed with an ApoAlert Annexin V Apoptosis kit (Clontech) in accordance with the manufacturer's recommendations, on a flow cytometer (FACScan, Becton-Dickinson).\nThese experiments were performed on MRC-5, a normal human fibroblast cell line which can be productively infected by HCMV in cell culture. The present inventors first examined whether infection of cells with HCMV alters the cell's sensitivity to Fas- or TNF-R1-mediated apoptosis."}, "[1]": {"tested_on": "HCMV-infected MRC-5 cells", "test": "Apoptosis resistance of HCMV-infected MRC-5 cells in presence of viral DNA polymerase inhibitors", "conditions": "concentration sufficient to inhibit viral replication; challenge two days later with anti-Fas antibody+CHX or TNF-α+CHX", "excerpt": "To discriminate between these two mechanisms, MRC-5 cells were infected with HCMV in the presence (or absence) of inhibitors of viral DNA polymerase, such as phosphonacetic acid or gancyclovir (Huang, 1975; Crumpacker, 1996) which prevent the expression of the late genes of HCMV in the host cell (Mocarski, 1996).\nMRC-5 cells uninfected (FIG. 3A) or infected with HCMV (FIG. 3B) were either untreated, or treated with either phosphonacetic acid or gancyclovir at a concentration sufficient to inhibit viral replication (Huang, 1975; Crumpacker, 1996). Two days later these cells were challenged with either anti-Fas antibody+CHX or TNF-α+CHX (FIGS. 3A and 3B). Although nearly all non-infected MRC-5 cells underwent apoptosis, irrespective of the presence or absence of phosphonacetic acid or gancyclovir, a major fraction of cells exposed to HCMV survived the challenge with the apoptotic stimuli in the absence of the viral DNA polymerase inhibitors. Further, a somewhat smaller but still large fraction of cells survived in the presence of the inhibitors. Thus, the insensitivity of HCMV-infected cells to apoptosis was not abolished by these drugs."}, "HeLa cells": {"tested_on": "HeLa cells", "test": "Transient transfection apoptosis assay in HeLa cells (anti-Fas antibody+CHX or TNF-α+CHX)", "conditions": "for protection of HeLa cells at very low plasmid concentration: 0.1% to 1% of the total DNA transfected, mixed with control vector, anti-Fas antibody+CHX; for β-gal levels after anti-Fas antibody+CHX treatment: plasmids diluted several hundred fold, β-gal marker plasmid", "protocol": "as §1, with “microscope. A similar degree of cell death occurred in fibroblasts when examined 5 to 28 h after the start of exposure, or a similar degree of cell death occurred in HeLa cells when examined 9-28 h after the start of exposure. Further, a similar degree of cell death for a given reagent was produced when any concentration within the range indicated above was used.” for “microscope.”\nThe degree of cell death in cells transfected with an indicator plasmid expressing E. coli β-galactosidase was determined by either a β-galactosidase ELISA (Boehringer Mannheim), in accordance with the manufacturer's recommendations, or by visually scoring, under a microscope, positive blue cells, expressing β-galactosidase, after staining them with X-gal.\nHeLa cells were transiently co-transfected with an expression plasmid vector, pME18S, carrying a polynucleotide sequence encoding IE1 or IE2 (FIG. 5, “IE1” and “IE2,” respectively), and a vector carrying the β-galactosidase gene (pCMVβ, Clontech). As a positive control, HeLa cells were transiently co-transfected with pCMVβ and a vector carrying a polynucleotide sequence encoding an anti-apoptotic polypeptide, such as the adenovirus E1B 19K or baculovirus p35.\nExpression of IE1 (approx. 72 kDa) and IE2 (approx. 86 kDa) in the transfected HeLa cells was confirmed by Western blot analysis, by immunofluorescence visually examined under a fluorescence microscope, and by transactivation activity which led to an elevation of the vector-CMV-promoter-driven β-galactosidase expression which was increased 2- to 5-fold, as measured by a β-galactosidase ELISA (data not shown). Apoptosis was induced by incubating the transfected cells for 24 h with either TNF-α+CHX, or anti-Fas antibody+CHX. The surviving cells were stained with X-gal, a chromogenic substrate of β-galactosidase, and then the blue-stained cells were scored (FIG. 5).\nTo identify HCMV genes that can suppress apoptosis induced by Fas-ligation, the present inventors established a transient transfection assay in HeLa cells. The HeLa cells can be transfected at much higher efficiency than MRC-5 cells and are similar in their sensitivity towards anti-Fas antibody and TNF-α treatment. Enhanced survival of HeLa cells following anti-Fas antibody+CHX treatment was detected by elevated β-galactosidase (β-gal) levels produced by a transfected β-gal marker plasmid.\nThe deletion mutants were transiently expressed in HeLa cells, cultured in DMEM supplemented with 10% fetal bovine serum, and assayed for their ability to block Fas- or TNF-R1-mediated apoptosis. Transfections and apoptosis assays were performed as previously described (Goldmacher et al., 1999). Briefly, cells were transiently transfected with the expression vectors (purified with a Qiagen plasmid purification kit) using SuperFect transfection reagent (Qiagen) in accordance with the manufacturer's protocol. After 24 hours, cells were exposed to anti-Fas 7C11 antibody (Coulter, 0.5 μg/ml)+cyclohexamide (Sigma, 10 μg/ml) for 24 hours.\nA genomic DNA library was cloned into pZeoSV2(+) plasmid (Invitrogen). Ten cosmids, pCM1007, pCM1015, pCM1017, pCM1029, pCM1035, pCM1039, pCM1040, pCM1052, pCM1058, and pCM1072, covering the AD169 genome (Fleckenstein et al., 1982, which is incorporated herein by reference), and pON2601 Toledo cosmid (Cha et al., 1996, which is incorporated herein by reference) containing unique HCMV sequences, were mixed in equal amounts and partially digested with Sau3AI (New England Biolabs, Beverly, Mass.). […]"}, "[2]": {"tested_on": "Fas-mediated apoptotic signaling in HeLa cells", "test": "Western blot of Fas-mediated apoptotic signaling events in HeLa clones", "protocol": "Cells were trypsinized, washed in Tris buffered saline, resuspended in a lysis buffer (150 mM NaCl, 5 mM EDTA, 50 mM Tris.HCl pH 8.0, 1% Triton X-100), freshly supplemented with phenylmethylsulfonyl fluoride (0.1 mM), leupeptin ([…]) and pepstatin (1 μg/mL), incubated on ice for 30 minutes, and centrifuged at 16,000 g for 15 minutes, at 4° C. Cytochrome c and procaspase 9 were detected in S-1 00 fractions of cells (Li et al., 1997, which is incorporated herein by reference).\nThe intracellular polypeptides were detected by Western blot analysis. Samples containing protein were electrophoretically resolved under reduced conditions, on Laemmli SDS-PAGE (Novex), after equal amounts of protein were loaded per well of the gel, detected using a standard Western blot protocol and a luminol-based ECL Western Blotting system (Amersham). The following antibodies were used in the Western blot analysis: anti-human Bid C-20 (Santa Cruz Biotechnology), 5F7 anti-human caspase 8 (Upstate Biotechnology), C210 anti-PARP (Biomol), 7H8.2C12 anti-cytochrome c (Pharmigen), B40 anti-human caspase 9 (Pharmigen), FITC-anti-mouse IgG (Sigma), HRP-anti-mouse IgG-F, (Pierce), HRP-anti-mouse IgG2b (Boehringer Mannheim), HRP-anti-rabbit IgG, and HRP-anti-mouse Ig (Amersham).\nThe impact of pUL37S on biochemical events involved in Fas-mediated apoptosis was examined by comparing control HeLa/pcDNA3 cells, which are sensitive to anti-Fas antibody plus CHX, to HeLa clones expressing either pUL37S or cellular Bcl-xL, both of which are resistant to Fas-mediated apoptosis. Ligation of Fas triggers the recruitment and activation of caspase 8 through the adapter molecule FADD (Ashkenazi et al., 1998). This process was not impaired by pUL37S since pro-caspase 8 was processed in pUL37S-expressing cells similar to its processing in either Bcl-xL-expressing cells, or control cells within 4 h of the exposure to anti-Fas antibody plus CHX, but not CHX alone (FIG. 16A). Fas-signaling is connected to mitochondrial events in apoptosis through Bid, a pro-apoptotic BH3 polypeptide that is proteolyzed by caspase 8 and subsequently translocates to mitochondria where it triggers cytochrome c release (Li et al., 1998; Lu et al., 1998)."}}, "note": "Residues, ends and D or L forms follow the SMILES beside them. *: point of attachment. Cbz = O=C(OCc1ccccc1)*; CH2F = FC*", "data": [{"molecule": "C[C@@H]1C[C@@H]([C@H](O)CC2CC(=O)NC(=O)C2)C(=O)[C@@H](C)C1", "note": "[CHX, Cycloheximide]", "values": [{"measurement": "cell death of MRC-5 cells", "setting": "MRC-5 cells", "result": "did not kill cells"}]}, {"molecule": "COC(=O)C[C@H](NC(=O)[C@H](C)NC(=O)[C@@H](NC(=O)OCc1ccccc1)C(C)C)C(=O)CF", "note": "[Z-VADfmk] (Cbz-Val-Ala-Asp(OMe)-CH2F)", "values": [{"measurement": "effect on Fas- and TNF-R1-mediated MRC-5 cell death", "setting": "MRC-5 cells; caspase inhibitor added with anti-Fas antibody or TNF-α +CHX", "result": "prevented"}]}, {"molecule": "Nc1nc(O)c2ncn(COC(CO)CO)c2n1", "note": "[gancyclovir]", "values": [{"measurement": "effect on insensitivity of HCMV-infected cells to apoptosis", "setting": "[1]", "result": "not abolished"}]}, {"molecule": "O=C(O)CP(=O)(O)O", "note": "[phosphonacetic acid]", "values": [{"measurement": "effect on insensitivity of HCMV-infected cells to apoptosis", "setting": "[1]", "result": "not abolished"}]}, {"molecule": "Bcl-2: human anti-apoptotic gene product", "values": [{"measurement": "protection of HeLa cells at very low plasmid concentration", "setting": "HeLa cells", "result": "detectable protection"}]}, {"molecule": "Bcl-xL: human cellular anti-apoptotic polypeptide", "values": [{"measurement": "protection of HeLa cells at very low plasmid concentration", "setting": "HeLa cells", "result": "detectable protection"}, {"measurement": "β-gal levels after anti-Fas antibody+CHX treatment", "setting": "HeLa cells", "result": "enhanced β-gal levels"}, {"measurement": "cleavage of PARP", "setting": "[2]; 4 h anti-Fas antibody plus CHX", "result": "inhibited"}, {"measurement": "cytochrome c release", "setting": "[2]; 4 h anti-Fas antibody plus CHX", "result": "not observed"}, {"measurement": "processing of procaspase 9", "setting": "[2]; 4 h anti-Fas antibody plus CHX", "result": "inhibited"}, {"measurement": "processing of pro-caspase 8", "setting": "[2]; within 4 h of anti-Fas antibody plus CHX", "result": "processed"}]}, {"molecule": "TNF-α", "values": [{"measurement": "cell death of MRC-5 cells", "setting": "MRC-5 cells", "result": "died"}]}, {"molecule": "p35: baculovirus anti-apoptotic polypeptide, positive control (protein, UniProt P08160 1-299, looked up) Early 35 kDa protein: MCVIFPVEIDVSQTIIRDCQVDKQTRELVYINKIMNTQLTKPVLMMFNISGPIRSVTRKNNNLRDRIKSKVDEQFDQLERDYSDQMDGFHDSIKYFKDEHYSVSCQNGSVLKSKFAKILKSHDYTDKKSIEAYEKYCLPKLVDERNDYYVAVCVLKPGFENGSNQVLSFEYNPIGNKVIVPFAHEINDTGLYEYDVVAYVDSVQFDGEQFEEFVQSLILPSSFKNSEKVLYYNEASKNKSMIYKALEFTTESSWGKSEKYNWKIFCNGFIYDKKSKVLYVKLHNVTSALNKNVILNTIK", "values": [{"measurement": "protection of HeLa cells at very low plasmid concentration", "setting": "HeLa cells", "result": "detectable protection"}, {"measurement": "survival of transfected cells after apoptosis induction", "setting": "HeLa cells; HeLa cells, 24 h with either TNF-α+CHX or anti-Fas antibody+CHX, X-gal stained cells scored", "result": "survived"}, {"measurement": "β-gal levels after anti-Fas antibody+CHX treatment", "setting": "HeLa cells", "result": "enhanced β-gal levels"}]}]}
